Measured values published in PubChem BioAssay (NCI).
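Method: 48-hour compound exposure of cells in 96-well plates, five concentrations, linear interpolation of endpoints. Here, GI50 denotes the concentration required for 50% inhibition of growth. TGI: concentration producing complete growth inhibition.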

Key:
Assay in all cases: DTP human tumour cell line panel, 48 h
DMS 273 small cell lung = test system: DMS 273 small cell lung
IGROV1 ovarian = test system: IGROV1 ovarian
SF-295 CNS = test system: SF-295 CNS
NCI-H522 lung = test system: NCI-H522 lung
HCT-116 colon = test system: HCT-116 colon
HOP-18 NSCLC = test system: HOP-18 NSCLC
HOP-62 NSCLC = test system: HOP-62 NSCLC
CAKI-1 renal = test system: CAKI-1 renal
PC-3 prostate = test system: PC-3 prostate
NCI/ADR-RES ovarian = test system: NCI/ADR-RES ovarian

## Cc1ccc(/C=C(\C#N)c2ccccc2)cc1
DMS 273 small cell lung
  TGI: > 100 µM
IGROV1 ovarian
  TGI: > 100 µM
SF-295 CNS
  TGI: > 100 µM
NCI-H522 lung
  TGI: > 100 µM
HCT-116 colon
  TGI: > 100 µM
HOP-18 NSCLC
  TGI: > 100 µM
HOP-62 NSCLC
  TGI: > 100 µM
CAKI-1 renal
  TGI: > 100 µM

## COCOCC[C@@H]1CC=CC(NC(=O)OCc2ccccc2)C1/C=C/C(=O)CCC1OCCO1 (some centres undefined)
DMS 273 small cell lung
  TGI: > 59.1 µM
IGROV1 ovarian
  TGI: > 100 µM
SF-295 CNS
  TGI: > 100 µM
NCI-H522 lung
  TGI: 34.7 µM
HCT-116 colon
  TGI: 33.1 µM
HOP-18 NSCLC
  TGI: > 100 µM
HOP-62 NSCLC
  TGI: > 100 µM
CAKI-1 renal
  TGI: > 100 µM

## COC(=O)C(C(=O)C(=O)Nc1ccc(OC)cc1[N+](=O)[O-])c1nc2cc(C)c(C)cc2[nH]c1=O (centres undefined)
IGROV1 ovarian
  TGI: > 100 µM
SF-295 CNS
  TGI: > 100 µM
NCI-H522 lung
  TGI: > 100 µM
HCT-116 colon
  TGI: > 100 µM
HOP-18 NSCLC
  TGI: > 100 µM
HOP-62 NSCLC
  TGI: > 100 µM
CAKI-1 renal
  TGI: > 100 µM

## Cc1nc(Nc2ccccc2)sc1C(=O)CC(=O)C(=O)NC12CC3CC(CC(C3)C1)C2
DMS 273 small cell lung
  TGI: > 100 µM
IGROV1 ovarian
  TGI: > 100 µM
SF-295 CNS
  TGI: > 100 µM
NCI-H522 lung
  TGI: > 100 µM
HCT-116 colon
  TGI: > 100 µM
HOP-18 NSCLC
  TGI: > 100 µM
HOP-62 NSCLC
  TGI: > 100 µM
CAKI-1 renal
  TGI: > 100 µM

## NNC(=O)N/N=C1\C(=O)N(c2nccs2)C(=O)C(=O)C1c1nc2ccccc2s1 (centres undefined)
DMS 273 small cell lung
  TGI: > 100 µM
IGROV1 ovarian
  TGI: > 100 µM
SF-295 CNS
  TGI: > 100 µM
HCT-116 colon
  TGI: > 100 µM
HOP-18 NSCLC
  TGI: 88.5 µM
HOP-62 NSCLC
  TGI: > 100 µM
CAKI-1 renal
  TGI: > 100 µM

## CCOC(=O)NC(=O)c1cn(CCN2CCNCC2)c(=O)[nH]c1=O
IGROV1 ovarian
  TGI: > 100 µM
SF-295 CNS
  TGI: > 100 µM
NCI-H522 lung
  TGI: > 100 µM
HCT-116 colon
  TGI: > 100 µM
HOP-18 NSCLC
  TGI: > 100 µM
HOP-62 NSCLC
  TGI: > 100 µM
CAKI-1 renal
  TGI: > 100 µM

## OC1CCC[C@@H]1Sc1ccccc1 (some centres undefined)
DMS 273 small cell lung
  TGI: > 100 µM
SF-295 CNS
  TGI: > 100 µM
HCT-116 colon
  TGI: > 100 µM
HOP-62 NSCLC
  TGI: > 100 µM
CAKI-1 renal
  TGI: > 100 µM

## CC1=C2[C@H](c3ccccc3)C3C=CC2(c2ccccc23)N(C(=O)C(c2ccccc2)c2ccccc2)C1=O (some centres undefined)
DMS 273 small cell lung
  TGI: > 100 µM
IGROV1 ovarian
  TGI: > 100 µM
SF-295 CNS
  TGI: > 100 µM
HCT-116 colon
  TGI: > 100 µM
HOP-18 NSCLC
  TGI: > 100 µM
HOP-62 NSCLC
  TGI: > 100 µM
CAKI-1 renal
  TGI: > 100 µM

## COC(=O)C(=O)C(C(=O)C=C(C)C)C(=O)C(=O)Nc1nc2ccc([N+](=O)[O-])cc2s1 (centres undefined)
DMS 273 small cell lung
  TGI: > 100 µM
IGROV1 ovarian
  TGI: 66.4 µM
NCI-H522 lung
  TGI: 78.9 µM
HCT-116 colon
  TGI: > 100 µM
HOP-18 NSCLC
  TGI: 54.6 µM
HOP-62 NSCLC
  TGI: > 100 µM
CAKI-1 renal
  TGI: 94.7 µM

## COc1cc(CC(C(=O)O)C(=O)O)c(OC)cc1CC(C(=O)O)C(=O)O
DMS 273 small cell lung
  TGI: > 100 µM
IGROV1 ovarian
  TGI: > 100 µM
SF-295 CNS
  TGI: > 100 µM
NCI-H522 lung
  TGI: > 100 µM
HCT-116 colon
  TGI: > 100 µM
HOP-62 NSCLC
  TGI: > 100 µM
CAKI-1 renal
  TGI: > 100 µM

## Cc1ccc(NC(=O)CC/C(CC(=O)C(C)(C)C)=N\Nc2ccc([N+](=O)[O-])cc2[N+](=O)[O-])cc1C
IGROV1 ovarian
  TGI: > 100 µM
SF-295 CNS
  TGI: > 100 µM
HCT-116 colon
  TGI: > 100 µM
HOP-18 NSCLC
  TGI: > 100 µM
HOP-62 NSCLC
  TGI: 61.9 µM

## Cc1c(C2Cc3ccccc3N2)c2ccccc2n1C (centres undefined)
DMS 273 small cell lung
  TGI: > 100 µM
IGROV1 ovarian
  TGI: > 100 µM
SF-295 CNS
  TGI: > 100 µM
NCI-H522 lung
  TGI: > 100 µM
HCT-116 colon
  TGI: > 100 µM
HOP-62 NSCLC
  TGI: > 100 µM
CAKI-1 renal
  TGI: > 100 µM

## O=C1[C@H](Cl)[C@H]2c3cc4ccccc4nc3Oc3ccccc3N12
DMS 273 small cell lung
  TGI: > 100 µM
IGROV1 ovarian
  TGI: > 100 µM
SF-295 CNS
  TGI: > 100 µM
NCI-H522 lung
  TGI: 88 µM
HCT-116 colon
  TGI: 58 µM
HOP-62 NSCLC
  TGI: > 100 µM
CAKI-1 renal
  TGI: > 100 µM

## CN(C)CCC1(C2=CCCC2)CC/C(=C\c2ccccc2Cl)C1=O (centres undefined)
IGROV1 ovarian
  TGI: 37.5 µM
SF-295 CNS
  TGI: 27.9 µM
HCT-116 colon
  TGI: 24.6 µM
HOP-18 NSCLC
  TGI: 24.8 µM

## CC(=N)N(C)O
IGROV1 ovarian
  TGI: > 100 µM
SF-295 CNS
  TGI: > 100 µM
NCI-H522 lung
  TGI: > 100 µM
HCT-116 colon
  TGI: > 100 µM
HOP-18 NSCLC
  TGI: > 100 µM
HOP-62 NSCLC
  TGI: > 100 µM

## CCCCCCCCCCCCCC(=O)OCC1OC(n2cc(F)c(=O)[nH]c2=O)C(N)C(OC(=O)CCCCCCCCCCCCC)C1O (centres undefined)
DMS 273 small cell lung
  TGI: > 100 µM
SF-295 CNS
  TGI: > 100 µM
NCI-H522 lung
  TGI: > 100 µM
HCT-116 colon
  TGI: > 100 µM
HOP-62 NSCLC
  TGI: > 100 µM
CAKI-1 renal
  TGI: > 100 µM

## COc1cc(/C=C\c2ccc(OC(C)=O)cc2)cc(OC)c1OC
DMS 273 small cell lung
  TGI: > 100 µM
IGROV1 ovarian
  TGI: > 100 µM
NCI-H522 lung
  TGI: > 100 µM
HCT-116 colon
  TGI: > 100 µM
HOP-62 NSCLC
  TGI: > 100 µM
CAKI-1 renal
  TGI: > 100 µM

## O=C(O)CCSC(=O)Nc1ccccc1Cl
DMS 273 small cell lung
  TGI: > 100 µM
IGROV1 ovarian
  TGI: > 100 µM
SF-295 CNS
  TGI: > 100 µM
HCT-116 colon
  TGI: > 100 µM
HOP-18 NSCLC
  TGI: > 100 µM
HOP-62 NSCLC
  TGI: > 100 µM
CAKI-1 renal
  TGI: > 100 µM

## COC(=O)C1=C(C(=O)OC)C2OC1c1cc3ccccc3cc12
IGROV1 ovarian
  TGI: 9.58 µM
SF-295 CNS
  TGI: 38.3 µM
NCI-H522 lung
  TGI: 2.9 µM
HCT-116 colon
  TGI: 4.29 µM
PC-3 prostate
  TGI: 32.2 µM
HOP-62 NSCLC
  TGI: 34.7 µM
CAKI-1 renal
  TGI: 4.26 µM
NCI/ADR-RES ovarian
  TGI: 30.7 µM

## CSc1ccc(C2=NN(C(C)=O)C(c3ccc(F)cc3)C2)cc1 (centres undefined)
IGROV1 ovarian
  GI50: 7.73 µM
  TGI: 34.8 µM
SF-295 CNS
  GI50: 16.4 µM
  TGI: 36.2 µM
NCI-H522 lung
  GI50: 14.7 µM
  TGI: 34.5 µM
HCT-116 colon
  GI50: 7.11 µM
  TGI: 20.1 µM
PC-3 prostate
  GI50: 12.7 µM
  TGI: 42.4 µM
HOP-62 NSCLC
  GI50: 16.6 µM
  TGI: 31.1 µM
CAKI-1 renal
  GI50: 12.9 µM
  TGI: 42.2 µM
NCI/ADR-RES ovarian
  GI50: 16.4 µM
  TGI: 32.9 µM

## COc1ccc2c(c1)N(CCO)C1=C(C(=O)OC1)C2c1ccccc1 (centres undefined)
IGROV1 ovarian
  GI50: 2.41 µM
  TGI: > 50 µM
SF-295 CNS
  GI50: 0.888 µM
  TGI: 2.73 µM
NCI-H522 lung
  GI50: 0.746 µM
  TGI: 3.33 µM
HCT-116 colon
  GI50: 1.97 µM
  TGI: 15.6 µM
PC-3 prostate
  GI50: 1.75 µM
  TGI: > 50 µM
HOP-62 NSCLC
  GI50: 2.18 µM
  TGI: > 50 µM
CAKI-1 renal
  GI50: 1.15 µM
  TGI: > 50 µM
NCI/ADR-RES ovarian
  GI50: 0.992 µM
  TGI: 2.66 µM
